Like-named read-outs stand apart in the source and are kept apart here.
Experiments:
Test in all cases: cells
Parameters in all cases: species or system NCI-60 human tumour cell lines; NCI-60 one-dose screen at 10 uM, percent growth inhibition versus untreated control cells
LOX IMVI = conditions: Homo sapiens, LOX IMVI, growth inhibition, one dose
IGROV1 = conditions: Homo sapiens, IGROV-1, growth inhibition, one dose
PC-3 = conditions: Homo sapiens, PC-3, growth inhibition, one dose
NCI-H522 = conditions: Homo sapiens, NCI-H522, growth inhibition, one dose
NCI-H322M = conditions: Homo sapiens, NCI-H322M, growth inhibition, one dose
T-47D = conditions: Homo sapiens, T47D, growth inhibition, one dose
MOLT-4 = conditions: Homo sapiens, MOLT-4, growth inhibition, one dose
SF-268 = conditions: Homo sapiens, SF-268, growth inhibition, one dose
SW-620 = conditions: Homo sapiens, SW-620, growth inhibition, one dose
RPMI-8226 = conditions: Homo sapiens, RPMI-8226, growth inhibition, one dose
HCC-2998 = conditions: Homo sapiens, HCC 2998, growth inhibition, one dose
SN12C = conditions: Homo sapiens, SN12C, growth inhibition, one dose
A549/ATCC = conditions: Homo sapiens, A549, growth inhibition, one dose
DU-145 = conditions: Homo sapiens, DU-145, growth inhibition, one dose
NCI/ADR-RES = conditions: Homo sapiens, NCI/ADR-RES, growth inhibition, one dose
NCI-H226 = conditions: Homo sapiens, NCI-H226, growth inhibition, one dose
OVCAR-8 = conditions: Homo sapiens, OVCAR-8, growth inhibition, one dose
[1] = read-out: Growth% inhibition / 5d
[2] = read-out: Growth% inhibition / 5a
[3] = read-out: Growth% inhibition / 5b
[4] = read-out: Growth% inhibition / 5e
[5] = read-out: Growth% inhibition / 5h

CN(C)c1ccc(C=NNC(=O)/C=C/C=C/c2ccc3c(c2)OCO3)cc1 (mixture of isomers) [5d, (2E,4E)-5-(Benzo[d][1,3]dioxol-5-yl)-N′-((E/Z)-4-(dimethylamino)-benzylidene)penta-2,4-dienehydrazide]
inhibition at 10 µM (LOX IMVI; [1]): 11.1%
inhibition at 10 µM (IGROV1; [1]): 10.1%
inhibition at 10 µM (PC-3; [1]): 15%
inhibition at 10 µM (NCI-H522; [1]): 11.7%

O=C(/C=C/C=C/c1ccc2c(c1)OCO2)NN=Cc1ccc(O)cc1 [5a, (2E,4E)-5-(Benzo[d][1,3]dioxol-5-yl)-N′-((E,Z)-4-hydroxybenzylidene)penta-2,4-dienehydrazide]
inhibition at 10 µM (LOX IMVI; [2]): 38.5%
inhibition at 10 µM (NCI-H322M; [2]): 18.5%
inhibition at 10 µM (T-47D; [2]): 18.6%
inhibition at 10 µM (IGROV1; [2]): 24.7%
inhibition at 10 µM (PC-3; [2]): 19.8%
inhibition at 10 µM (MOLT-4; [2]): 23.5%
inhibition at 10 µM (SF-268; [2]): 17.1%
inhibition at 10 µM (SW-620; [2]): 19.8%
inhibition at 10 µM (RPMI-8226; [2]): 16.9%
inhibition at 10 µM (NCI-H522; [2]): 22.8%

O=C(/C=C/C=C/c1ccc2c(c1)OCO2)N/N=C/c1ccc(O)cc1O [5b, (2E,4E)-5-(Benzo[d][1,3]dioxol-5-yl)-N′-((E)-2,4-dihydroxybenzylidene)penta-2,4-dienehydrazide]
inhibition at 10 µM (LOX IMVI; [3]): 90.3%
inhibition at 10 µM (NCI-H322M; [3]): 82.2%
inhibition at 10 µM (HCC-2998; [3]): 61.1%
inhibition at 10 µM (T-47D; [3]): 76.1%
inhibition at 10 µM (SN12C; [3]): 67.2%
inhibition at 10 µM (IGROV1; [3]): 71.1%
inhibition at 10 µM (A549/ATCC; [3]): 63.9%
inhibition at 10 µM (PC-3; [3]): 62%
inhibition at 10 µM (MOLT-4; [3]): 86.7%
inhibition at 10 µM (DU-145; [3]): 50%
inhibition at 10 µM (SF-268; [3]): 75.6%
inhibition at 10 µM (SW-620; [3]): 73.5%
inhibition at 10 µM (RPMI-8226; [3]): 52.3%
inhibition at 10 µM (NCI/ADR-RES; [3]): 94.8%
inhibition at 10 µM (NCI-H226; [3]): 62.4%
inhibition at 10 µM (OVCAR-8; [3]): 77.2%
inhibition at 10 µM (NCI-H522; [3]): 78.9%

CCN(CC)c1ccc(/C=N/NC(=O)/C=C/C=C/c2ccc3c(c2)OCO3)c(O)c1 [5e, (2E,4E)-5-(Benzo[d][1,3]dioxol-5-yl)-N′-((E)-4-(diethylamino)-2-hydroxybenzylidene)penta-2,4-dienehydrazide]
inhibition at 10 µM (LOX IMVI; [4]): 81.8%
inhibition at 10 µM (NCI-H322M; [4]): 66.8%
inhibition at 10 µM (HCC-2998; [4]): 46%
inhibition at 10 µM (T-47D; [4]): 73.7%
inhibition at 10 µM (SN12C; [4]): 45.9%
inhibition at 10 µM (IGROV1; [4]): 61.8%
inhibition at 10 µM (A549/ATCC; [4]): 46.7%
inhibition at 10 µM (PC-3; [4]): 59.1%
inhibition at 10 µM (MOLT-4; [4]): 81.7%
inhibition at 10 µM (DU-145; [4]): 46.8%
inhibition at 10 µM (SF-268; [4]): 66.3%
inhibition at 10 µM (SW-620; [4]): 67.7%
inhibition at 10 µM (RPMI-8226; [4]): 46.4%
inhibition at 10 µM (NCI/ADR-RES; [4]): 82.5%
inhibition at 10 µM (NCI-H226; [4]): 50.5%
inhibition at 10 µM (OVCAR-8; [4]): 67.1%
inhibition at 10 µM (NCI-H522; [4]): 87.5%

C/C(=N\NC(=O)/C=C/C=C/c1ccc2c(c1)OCO2)c1ccc(Br)cc1 [5h, (2E,4E)-5-(Benzo[d][1,3]dioxol-5-yl)-N′-((E)-1-(4-bromophenyl)ethylidene)penta-2,4-dienehydrazide]
inhibition at 10 µM (LOX IMVI; [5]): 38.3%
inhibition at 10 µM (NCI-H322M; [5]): 36.5%
inhibition at 10 µM (HCC-2998; [5]): 10.8%
inhibition at 10 µM (T-47D; [5]): 65%
inhibition at 10 µM (SN12C; [5]): 12.4%
inhibition at 10 µM (IGROV1; [5]): 29.7%
inhibition at 10 µM (A549/ATCC; [5]): 12.5%
inhibition at 10 µM (PC-3; [5]): 30.9%
inhibition at 10 µM (MOLT-4; [5]): 25.3%
inhibition at 10 µM (DU-145; [5]): 44%
inhibition at 10 µM (SF-268; [5]): 32.5%
inhibition at 10 µM (SW-620; [5]): 25.4%
inhibition at 10 µM (RPMI-8226; [5]): 19.4%
inhibition at 10 µM (NCI/ADR-RES; [5]): 33.9%
inhibition at 10 µM (NCI-H226; [5]): 24.1%
inhibition at 10 µM (OVCAR-8; [5]): 24.7%
inhibition at 10 µM (NCI-H522; [5]): 19.9%

From article PMC9037111, “Structure-based design, synthesis, and biological evaluation of novel piperine–resveratrol hybrids as antiproliferative agents targeting SIRT-2” (RSC Advances, 2021)
